Earlier results as cited in patent publication US10881613B2, “Fumarate polymersomes” (UCL BUSINESS LTD, priority 2016, dated 2021).

Settings: in vivo

half life (metabolized by the liver): 2 h
Compound: CC(O)CO (stereo not shown) [Propylene glycol]
